Assay results taken from patent publication US20240239801A1, “PYRIMIDO[5,4,D]PYRIMIDINE COMPOUNDS, COMPOSITIONS COMPRISING THEM AND USES THEREOF” (Université de Montréal, priority 2021, published 2024).
Where two headings read alike, the source gives them in different places.

Key:
[1] = tested on: SW480 pERK; test: Phospho-ERK inhibition, AlphaLISA SureFire Ultra p-ERK 1/2; type: cell-based, human; settings: for SW480 (Ymin %): lowest value of the pERK IC50 curve
Protocol: (§1) All cancer cell lines (A375, A101D, A2058, RKO, HT29 SK-MEL 30, IPC298, HepG2, HCT-116, Lovo, SW620, SW480, NCI-H358, NCI-H2122, Calu-6, NCIH2087, NCIH1755, NCIH1666 and Mewo) were obtained from ATCC and cultured in RPMI-1640 medium (Gibco) supplemented with 5% heat inactivated fetal bovine serum (FBS, Wisent) at 37° C. under 5% CO2. Cells were maintained in T175 flasks (Greiner). They were passaged by removing the culture medium, washing once in 10 mL of room temperature Phosphate Buffered Saline (PBS; Wisent) and incubating at 37° C. with 2 mL of 0.05% Trypsin (Thermo-Fisher). Trypsin was then inactivated by adding complete growth medium and the cells were then replated in a T175 culture dish at the appropriate dilution. All cell lines were routinely tested for mycoplasma contamination. Tissue type and mutational status of each cell line can be found in Table B.
(§2) AlphaLISA® SureFire® Ultra™ p-ERK ½ (Thr202/Tyr204) analysis was conducted on cells plated in 100 μL of complete RPMI-1640 growth medium in 96-well flat-bottomed transparent dishes (Costar) at a density indicated in Table C. Cells were maintained overnight at 37° C. under 5% CO2 before treatment with compounds' dilution series for one hour. The cell density in cells/cm^2 corresponds to cell number divided by the area of one well of a 96-well plate ([…]).
(§3) In a dilution series 100 μL/well of test substance dilution prepared in complete RPMI-1640 growth media was added to the cells. The dilution series is selected so that ten concentrations cover a range from 30 μM or 10 μM to 0.33 nM. If necessary, the initial concentration of 10 μM is increased to 100 μM or lowered to 1 μM (as in the case of A375 and NCIH1666 cells, which are generally more sensitive to the compounds) and further dilution is carried out accordingly. The final concentration of DMSO in the assay is set at 0.5%.
(§4) After treatment, media was removed, and cells were lysed in 50 μL of 1× AlphaScreen Ultra Lysis Buffer (Perkin Elmer). The AlphaLISA® SureFire® Ultra™ p-ERK ½ (Thr202/Tyr2O4) (PerkinElmer) reactions were performed with 5 μL of cell lysate according to the manufacturer's specifications in 384-well proxyplates (Perkin Elmer) followed by overnight incubation of the reactions at room temperature in a humidified chamber. After completion of the reactions, the signals were recorded on an EnVision plate reader (Perkin Elmer) using built in AlphaLISA® settings.
(§5) The effect of each compound dilution on the pERK signal was expressed in % inhibition and calculated as follows. An internal 100% inhibition control (1 μM trametinib, cat. No. HY-10999; MedChem Express; CAS No. 871700-17-3) was included in each plate and used as a measure of pERK background. First, the value obtained for trametinib was subtracted from each data point. The average of DMSO (vehicle) controls (set as 0% inhibition) was established and used to calculate % inhibition:
(§6) The ability of each compound to inhibit pERK signal was expressed as an IC50 value obtained by plotting the inhibition values for each data point of a dilution series and fitting the obtained curves using a log(agonist) versus response−variable slope (four parameters) function using GraphPadPrism (V7.0).
(§7) When present, paradoxical pERK induction is inferred from the negative % inhibition values observed in the pERK IC50 curves of a compound.

[2] = tested on: HCT116 pERK; test: as above; type: cell-based, human; settings: for HCT116 (Ymin %): lowest value of the pERK IC50 curve
Protocol: as §1, §2, §3, §4, §5, §6, §7

[3] = Table 3, 1 h treatment, read-out: SW480 PERK IC50
[4] = Table 2, 1 h treatment, read-out: SW480 PERK IC50 (UM)

Row | Structure (SMILES) | IC50 [1, 3] [µM] | IC50 ([2]; Table 3, 1 h treatment) [µM] | IC50 ([2]; Table 2, 1 h treatment) [µM] | SW480 (Ymin %) ([1]; Table 3) [%] | HCT116 (Ymin %) ([2]; Table 3) [%] | IC50 [1, 4] [µM] | SW480 (Ymin %) ([1]; Table 2) [%] | HCT116 (Ymin %) ([2]; Table 2) [%] | other results
1 | COc1ccc(S(=O)(=O)Nc2ccc(F)c(Nc3ncnc4cnc(N5CCC(F)(F)C5)nc34)c2F)cc1 [Example 39] | 10 to 30 | 10 to 30 | – | −3 | 5 | – | – | – | –
2 | COc1ccc(S(=O)(=O)Nc2ccc(F)c(Nc3ncnc4cnc(SC)nc34)c2F)c(C#N)c1 [Example 7] | – | – | 10 to 30 | – | – | 1 to 10 | 17 | 7 | –
3 | COc1ccc(S(=O)(=O)Nc2ccc(F)c(Nc3ncnc4c(N)nc(-n5cnc(C)c5C)nc34)c2F)cc1 [Example 85] | – | – | – | – | – | – | – | – | IC50 ([1]; Table 4, 1 h treatment, read-out: SW480 PERK IC50): 1 to 10 µM; SW480 (Ymin %) ([1]; Table 4): 4%; IC50 ([2]; Table 4, 1 h treatment): 10 to 30 µM; HCT116 (Ymin %) ([2]; Table 4): 8%
4 | CSc1ncc2ncnc(Nc3c(F)ccc(NS(=O)(=O)c4ccc(Br)cc4F)c3F)c2n1 [Example 16] | – | – | 10 to 30 | – | – | 1 to 10 | 3 | 1 | –
5 | COc1ccc(S(=O)(=O)Nc2ccc(F)c(Nc3ncnc4cnc(-n5ccnc5)nc34)c2F)cc1 [Example 35] | 1 to 10 | 10 to 30 | – | 14 | −4 | – | – | – | –
6 | COc1ccc(S(=O)(=O)Nc2ccc(F)c(Nc3ncnc4cnc(-n5cnc6ccccc65)nc34)c2F)cc1 [Example 36] | 1 to 10 | 1 to 10 | – | 10 | 10 | – | – | – | –
7 | COc1ccc(S(=O)(=O)Nc2ccc(F)c(Nc3ncnc4cnc(SC)nc34)c2Cl)cc1 [Example 89] | – | – | – | – | – | – | – | – | IC50 ([1]; SW480 cells, pERK, read-out: SW480 PERK IC50): 10 to 30 µM; SW480 pERK % Ymin (lowest value of the IC50 curve) ([1]; SW480 cells, value in brackets, Ymin above −20% = minimal or no paradoxical induction): 3.5%; IC50 ([2]; HCT116 cells, pERK): 10 to 30 µM; HCT116 pERK % Ymin (lowest value of the IC50 curve) ([2]; HCT116 cells, value in brackets, Ymin above −20% = minimal or no paradoxical induction): −5%
8 | COc1ccc(S(=O)(=O)Nc2ccc(F)c(Nc3ncnc4cnc(SC)nc34)c2F)c(C)c1 [Example 12] | – | – | 1 to 10 | – | – | 1 to 10 | −10 | −7 | –
9 | COc1ccc(S(=O)(=O)Nc2ccc(F)c(Nc3ncnc4cnc(SC)nc34)c2F)cc1OC [Example 2] | – | – | 1 to 10 | – | – | 1 to 10 | 5 | −14 | –
10 | CSc1ncc2ncnc(Nc3c(F)ccc(NS(=O)(=O)c4ccccc4C#N)c3F)c2n1 [Example 5] | – | – | 10 to 30 | – | – | 1 to 10 | 8 | 8 | –
11 | CSc1ncc2ncnc(Nc3c(F)ccc(NS(=O)(=O)N4CCC(F)(F)C4)c3F)c2n1 [Example 27] | – | – | 10 to 30 | – | – | – | – | −6 | –
12 | CSc1ncc2ncnc(Nc3c(F)ccc(NS(=O)(=O)c4ccc(C)cc4)c3F)c2n1 [Example 18] | – | – | 10 to 30 | – | – | 1 to 10 | 11 | 4 | –
13 | CSc1ncc2ncnc(Nc3c(F)ccc(NS(=O)(=O)c4ccc(C)cc4C)c3F)c2n1 [Example 23] | – | – | 1 to 10 | – | – | 1 to 10 | −7 | 0 | –
14 | Cc1ncn(-c2ncc3ncnc(Nc4c(F)ccc(NS(=O)(=O)c5ccccc5C#N)c4F)c3n2)c1C [Example 34] | 1 to 10 | 10 to 30 | – | −2.0 | −3 | – | – | – | –
15 | COc1ccc(S(=O)(=O)Nc2ccc(F)c(Nc3ncnc4cnc(N5CC[C@@H](F)C5)nc34)c2F)cc1 [Example 38] | 10 to 30 | 10 to 30 | – | −3 | −1 | – | – | – | –
16 | COc1ccc(S(=O)(=O)Nc2ccc(F)c(Nc3ncnc4cnc(SC)nc34)c2F)c(C(F)(F)F)c1 [Example 14] | – | – | 1 to 10 | – | – | 1 to 10 | −6 | −5 | –
17 | COC1CN(S(=O)(=O)Nc2ccc(F)c(Nc3ncnc4cnc(SC)nc34)c2F)C1 [Example 25] | – | – | 10 to 30 | – | – | 10 to 30 | −6 | 7 | –
18 | CSc1ncc2ncnc(Nc3c(F)ccc(NS(=O)(=O)c4ccccc4Cl)c3F)c2n1 [Example 21] | – | – | 1 to 10 | – | – | 1 to 10 | 9 | 2 | –

More lines, main results first:

Row | IC50 [1, 3] [µM] | IC50 ([2]; Table 3, 1 h treatment) [µM] | IC50 ([2]; Table 2, 1 h treatment) [µM] | Structure (SMILES) | SW480 (Ymin %) ([1]; Table 3) [%] | HCT116 (Ymin %) ([2]; Table 3) [%] | IC50 [1, 4] [µM] | SW480 (Ymin %) ([1]; Table 2) [%] | HCT116 (Ymin %) ([2]; Table 2) [%] | other results
19 | 10 to 30 | 10 to 30 | – | COc1ccc(S(=O)(=O)Nc2ccc(F)c(Nc3ncnc4cnc(OC)nc34)c2F)cc1 [Example 46] | 12 | 8 | – | – | – | –
20 | 1 to 10 | 1 to 10 | – | O=S(=O)(Nc1ccc(F)c(Nc2ncnc3cnc(N4CC[C@H](F)C4)nc23)c1F)c1ccc(Cl)cc1Cl [Example 61] | 9 | 11 | – | – | – | –
21 | 1 to 10 | 1 to 10 | – | CO[C@@H]1CCN(S(=O)(=O)Nc2ccc(F)c(Nc3ncnc4cnc(N5CC[C@H](F)C5)nc34)c2F)C1 [Example 60] | 15 | 9 | – | – | – | –
22 | 1 to 10 | 1 to 10 | – | COc1ccc(S(=O)(=O)Nc2ccc(F)c(Nc3ncnc4cnc(-n5cnc6ccccc65)nc34)c2F)c(C)c1 [Example 55] | −2 | −4 | – | – | – | –
23 | 1 to 10 | 1 to 10 | – | CCC1CCN(S(=O)(=O)Nc2ccc(F)c(Nc3ncnc4cnc(-n5cnc6ccccc65)nc34)c2F)C1 (stereo not drawn) [Example 76] | −9 | −1 | – | – | – | –
24 | 1 to 10 | 1 to 10 | – | COc1ccc(S(=O)(=O)Nc2ccc(F)c(Nc3ncnc4cnc(N5CC(F)C5)nc34)c2F)cc1 [Example 47] | −1 | 6 | – | – | – | –
25 | 1 to 10 | 1 to 10 | – | COc1ccc(S(=O)(=O)Nc2ccc(F)c(Nc3ncnc4cnc(N5CC(F)C5)nc34)c2F)c(F)c1 [Example 52] | −8 | −4 | – | – | – | –
26 | 1 to 10 | 1 to 10 | – | COc1ccc(S(=O)(=O)Nc2ccc(F)c(Nc3ncnc4cnc(N5CC[C@H](F)C5)nc34)c2F)c(F)c1 [Example 44] | 12 | −2 | – | – | – | –
27 | 1 to 10 | 1 to 10 | – | COCC1CCN(S(=O)(=O)Nc2ccc(F)c(Nc3ncnc4cnc(-n5cnc6ccccc65)nc34)c2F)C1 (stereo not drawn) [Example 70] | 1 | 0 | – | – | – | –
28 | 1 to 10 | 1 to 10 | – | COc1ccc(S(=O)(=O)Nc2ccc(F)c(Nc3ncnc4cnc(-n5cnc(C)c5C)nc34)c2F)cc1 [Example 40] | −7 | 12 | – | – | – | –
29 | < 0.5 | 0.5 to 1 | – | COc1ccc(S(=O)(=O)Nc2ccc(F)c(Nc3ncnc4cnc(-n5cnc6c(N)cccc65)nc34)c2F)c(F)c1 [Example 79] | −2 | −6 | – | – | – | –
30 | 0.5 to 1 | 0.5 to 1 | – | CO[C@@H]1CCN(S(=O)(=O)Nc2ccc(F)c(Nc3ncnc4cnc(-n5cnc6ccccc65)nc34)c2F)C1 [Example 59] | 2 | 11 | – | – | – | –
31 | 1 to 10 | 1 to 10 | – | COc1ccc(S(=O)(=O)Nc2ccc(F)c(Nc3ncnc4cnc(N5CC(F)(F)C5)nc34)c2F)c(F)c1 [Example 50] | −9 | 8 | – | – | – | –
32 | 1 to 10 | 1 to 10 | – | COc1ccc(S(=O)(=O)Nc2ccc(F)c(Nc3ncnc4cnc(-n5cnc(C)c5C)nc34)c2F)c(C)c1 [Example 56] | 4 | −10 | – | – | – | –
